In the experiment the target is P. falciparum apicoplast DNA polymerase (Pf-apPOL) (Plasmodium falciparum, UniProt Q8ILY1). As to the kind of experiment: Fluorescence-based high-throughput DNA polymerase assay (molecular beacon), primary screen and dose-response. In kind it is biochemical. Particulars: for DNA Pol: 90 min, 10 µM; for IC50: supplemental file 2, sheet IC50 nontoxic compounds, Pf-apPOL. How it is done:
The HT assay employs a molecular beacon, a stem-loop DNA template with a Cy3 dye and the Black Hole Quencher on the 3′ and 5′ ends of the DNA, respectively. Pf-apPOL concentration is based on a calculated absorptivity of ε280 = 56750 M^−1 cm^−1. Reactions were carried out at 25 °C, using Corning 3575 […] (well-volume, 20 µL). Assays testing for compound inhibition composed of reaction buffer (pH 7.9 in 50 mM potassium acetate, 20 mM Tris-acetate and 10 mM magnesium acetate), Pf-apPOL (20 nM), DNA substrate (20 nM), dNTPs (6 µM), and compound (10 µM in DMSO). The DNA and nucleotide substrates (dNTPs) were at concentrations of 20 nM and 6 µM, respectively, in the assay. Pf-apPOL was incubated in the reaction buffer with dNTPs and the compound of interest (10 µM, in the assay) at 25 °C for 10 min. The DNA substrate was then added and the reaction was allowed to proceed for 90 min at 25 °C.
Each assay plate contained 16 negative controls (no Pf-apPOL, DMSO present) and 16 positive controls (Pf-apPOL present, no DMSO). The fluorescence of each well was determined using a BioTek Synergy Neo fluorescence plate reader using excitation and emission wavelengths of 555 and 570 nm, respectively.
In the above, Min is the average of fluorescence emission of the negative controls (substrate only), Max the average fluorescence emission from the positive controls (enzyme + substrate), and Test the emission from the assays in the presence of compounds (enzyme + compound + substrates). […] […] The IC50 of each compound was determined using Equation (2): (2) IC50= Vmax/(1+ (I/IC50)^n)
In the above, n measures cooperativity, with n > 1 indicating synergistic binding of more than a single molecule of the compound.
To identify apPOL inhibitors we utilised our previously developed high-throughput DNA polymerase assay. The HT assay is based on a molecular beacon DNA template that forms a stem-loop with a Cy3 dye and the Black Hole Quencher on the 3′ and 5′ ends of the DNA, respectively. DNA polymerase activity extends an annealed primer through the stem region, displacing the fluorophore from the quencher, thereby increasing its fluorescence (Figure 1(A)). The assay accurately recapitulates the kinetic behaviour of apPOL, as measured through more conventional low-throughput gel-based assays. The Z′ factor for the assay described here was 0.9 across all plates (data not shown).
Figure 1. High-throughput screening. (A) The fluorescent-based DNA polymerase assay used to screen the compound libraries. The DNA template strand is a hairpin loop with a primer annealed to the loop. The 3’ end of the primer is 11 bases away from the 6 bp duplex. Strand displacement activity of the DNA polymerase separates the Cy3 dye from the Black hole quencher leading to an increase in fluorescent signal. (B) The high-throughput assay workflow. The DNA polymerase is incubated with […] compound for 10 min prior to addition of the hairpin substrate. The reaction is quenched at 3 different time points and the fluorescent signal is measured and % inhibition is determined using the provided equation.

Data on three compounds can be found in paper PMC9090415, “Discovery of small molecule inhibitors of Plasmodium falciparum apicoplast DNA polymerase” (Journal of Enzyme Inhibition and Medicinal Chemistry, 2022).

Broadly, the IC50 is the concentration that gives 50% inhibition.

Chain of P. falciparum apicoplast DNA polymerase (Pf-apPOL) (Q8ILY1 entry or part of it): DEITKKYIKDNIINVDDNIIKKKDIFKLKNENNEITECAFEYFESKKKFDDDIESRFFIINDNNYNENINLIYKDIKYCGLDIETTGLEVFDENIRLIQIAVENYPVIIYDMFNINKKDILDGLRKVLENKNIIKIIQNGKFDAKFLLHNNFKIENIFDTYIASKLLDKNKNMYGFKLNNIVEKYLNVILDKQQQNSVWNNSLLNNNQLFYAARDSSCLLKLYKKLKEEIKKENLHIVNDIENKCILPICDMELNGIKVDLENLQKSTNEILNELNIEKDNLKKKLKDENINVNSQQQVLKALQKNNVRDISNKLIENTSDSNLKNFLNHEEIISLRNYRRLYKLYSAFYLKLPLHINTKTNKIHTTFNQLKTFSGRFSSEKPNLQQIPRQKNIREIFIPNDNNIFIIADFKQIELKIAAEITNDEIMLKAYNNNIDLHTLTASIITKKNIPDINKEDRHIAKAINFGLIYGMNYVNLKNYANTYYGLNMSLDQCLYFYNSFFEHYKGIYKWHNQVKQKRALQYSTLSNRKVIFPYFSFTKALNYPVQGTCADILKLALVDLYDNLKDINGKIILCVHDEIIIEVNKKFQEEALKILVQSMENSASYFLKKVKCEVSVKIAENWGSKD

As for `Cc1ccc(N2NC(=O)/C(=C\c3ccc(O)c([N+](=O)[O-])c3)C2=O)cc1Cl` [KU0058427], the “DNA Pol” value reads like this: ('DNA Pol' of the 186 hits list (screen value)) 41; (primary screen value, "DNA Pol") 41. Also, the “% inhibition Apo pol 10'” value runs as follows: (DRC-1, conc 2.5) 22.1005%; (DRC-1, conc 5) 22.1201%; (DRC-1, conc 10) 57.6403%; (DRC-1, conc 20) 74.2262%; (DRC-1, conc 40) 90.9483%; (DRC-1, conc 80) 95.3494%. Besides, the “% inhibition Apol 90'” value is given as 11.8681% (DRC-1, conc 2.5); 11.4719% (DRC-1, conc 5); 38.0061% (DRC-1, conc 10); 55.0808% (DRC-1, conc 20); 83.5201% (DRC-1, conc 40); 94.8173% (DRC-1, conc 80). Besides, the “% inhibition apPOL 180'” value amounted to 4.9901% (DRC-1, conc 2.5); 2.877% (DRC-1, conc 5); 25.4818% (DRC-1, conc 10); 38.9214% (DRC-1, conc 20); 73.2638% (DRC-1, conc 40); 93.9984% (DRC-1, conc 80). For the same compound, the “% inhibition apPOL 180'” value reads like this: (DRC-2, conc 2.5) 2.37%; (DRC-2, conc 5) 9%; (DRC-2, conc 10) 20%; (DRC-2, conc 20) 33%; (DRC-2, conc 40) 57%; (DRC-2, conc 80) 80%. The “% inhibition apPOL 180'” value (DRC-2, concentration 5) is listed as 9% and the “% inhibition apPOL 180'” value (DRC-2, concentration 10) came to 20%. The “% inhibition Apo pol 5'” value runs as follows: (DRC-2, conc 2.5) 11%; (DRC-2, conc 5) 21%; (DRC-2, conc 10) 35%; (DRC-2, conc 20) 44%; (DRC-2, conc 40) 54%; (DRC-2, conc 80) 56%. Also, the “% inhibition Apo pol 5'” value is, setting by setting: (DRC-2, concentration 2.5) 11%; (DRC-2, concentration 20) 44%. The “% inhibition Apol 40'” value runs as follows: (DRC-2, conc 2.5) 11%; (DRC-2, conc 5) 20%; (DRC-2, conc 10) 34%; (DRC-2, conc 20) 46%; (DRC-2, conc 40) 64%; (DRC-2, conc 80) 74%. Besides, the “% inhibition Apol 40'” value (DRC-2, concentration 2.5) amounted to 11% and the “% inhibition Apol 40'” value (DRC-2, concentration 5) was found to be 20%. In addition, the “% inhibition ApPOL 90'” value came out at 9% (DRC-2, conc 2.5); 19% (DRC-2, conc 5); 28% (DRC-2, conc 10); 44% (DRC-2, conc 20); 65% (DRC-2, conc 40); 78% (DRC-2, conc 80). Also, the “% inhibition ApPOL 90'” value is recorded as 9% (DRC-2, concentration 2.5) and 44% (DRC-2, concentration 20).

Turning to `Cc1ccc(C(=O)/C=C/C=C/C=C/N(C)C)o1` [Molecule 96], the IC50 came to 4.93 µM.

As to `N#CC(C#N)=C1SCN(c2cccc(Cl)c2)CS1` [Molecule 29], the IC50 amounted to 11.9 µM.
